Test results: patent publication US8697095B1, “Inhibition of replication of oncogenic herpesviruses” (priority 2004, dated 2014)
Several values for one entry are separate records, joined by “and”; a condition that tells them apart may be missing. Equal values may be shown once. Entries after “also recorded” stand apart in the source; their conditions may differ.

Legend:
KSHV [1] = test system: KSHV
Procedure: BCBL-1 cells were incubated with or without THC and in the presence of these compounds.

[2] = cited from earlier work
KSHV, MHV 68 = conditions: FIG. 4 comparison; cited from earlier work
[3] = test system: CMV immediate early promoter; assay: Dual luciferase promoter assay, control CMV promoter in NIH3T12 cells; format: cell-based; conditions: 5 μg/ml, 48 hours
Excerpt: (§1) FIG. 3 is a table showing the relative luciferase activity of extracts from control and THC treated cells. […] cells co-transfected with MHV 68 ORF 50 plus CMV control (top rows). BCBL-1 cells were co-transfected with the KSHV ORF 50 plus CMV control (bottom rows). Data represents averages from three independent co-transfection experiments.
(§2) A DNA fragment corresponding to the promoter region upstream of the mapped mRNAs was cloned into the basic firefly luciferase vector (Promega, Inc, Madison Wis.) to evaluate the effect of THC on the KSHV ORF 50 promoter. To assay the effect of THC on the MHV 68 ORF 50 gene, a DNA fragment containing the 0.4 kb full length ORF 50 promoter (nucleotides 66242-66652) cloned upstream of the firefly luciferase was utilized. About 5 μg KSHV ORF 50 firefly plasmid DNA was transfected into BCBL-1 cells. About 5 μg MHV 68 ORF 50 firefly plasmid DNA was transfected Into NIH312 cells. Control renilla luciferase expression vector (under the control of the CMV immediate early promoter) was included and co-transfected along with the ORF 50 reporter constructs. […] Luciferase activities were determined using a dual luminometer.
(§3) To evaluate the effect of THC on the MHV 68 and KSHV ORF 50 promoters, luciferase reporter assays were performed. […] Luciferase activities were determined using a dual luminometer. […]

NIH3T12 cells [4] = assay: Cytotoxicity (monolayer growth and morphology) in NIH3T12 cells; format: cell-based, Murine; conditions: 0.6-10 μg/ml, 2 days
Excerpt: (§4) Because the observed effects might be due to a non-specific toxic effect of THC, the inventors tested whether THC alters cell division or morphology in NIH3T12 and owl monkey kidney (OMK) cells. […].

HSV-1 [5] = assay: HSV-1 replication in OMK cells; format: cell-based
Procedure: Control cultures were treated with […]. IC50 was determined by measuring virus titers in THC treated and control samples after one cycle of freeze-thawing of the cultures. Additional controls were uninfected cells grown in the presence of THC or DMSO. THC or DMSO were present throughout the experiment.
The inventors next examined whether or not the THC inhibitory effect can be observed against other herpesviruses and tested whether drug treatment suppresses the replication of the alpha herpesvirus, HSV-1. […] . […] HSV-1 replication in OMK was also unaffected by THC in an analogous experiment (not shown).

KSHV ORF 50 promoter = assay: Dual luciferase promoter assay, KSHV ORF 50 promoter in BCBL-1 cells; format: cell-based; conditions: 5 μg/ml, 48 hours
Excerpt: as §1, §2, §3

BCBL-1 cells = assay: Cell division inhibition (cell counts) in BCBL-1 cells; format: cell-based; conditions: BCBL1, 48 h, BCBL-1, two days, read-out: 50% cell division inhibitory concentration
Procedure: (§5) The effect of higher THC concentrations on cell division was also determined. Exponentially growing BCBL-1 or NIH12 cells were cultured for two days in the presence of various concentrations of THC or DMSO and cell counts were determined. The 50% cell division inhibitory concentration of THC for BCBL-1 cells was around 33 μM. NIH3T12 cells were less sensitive and the 50% inhibitory concentration was around 99 μM (not shown).

HVS = assay: Cytopathic effect and virus yield reduction, HVS in owl monkey kidney cells; format: cell-based, herpesvirus saimiri (HVS)
[6] = test system: CMV immediate early promoter; assay: Dual luciferase promoter assay, control CMV promoter in BCBL-1 cells; format: cell-based; conditions: 5 μg/ml
Excerpt: as §1, §2, §3

NIH3T12 cells [7] = assay: Cell division inhibition (cell counts) in NIH3T12 cells; format: cell-based, Murine; conditions: Mus musculus, 48 h, NIH3T12, two days, read-out: 50% cell division inhibitory concentration
Procedure: as §5

KSHV [8] = assay: Gardella gel antiviral assay, KSHV DNA replication in BCBL-1 cells
EBV = assay: Gardella gel antiviral assay, TPA-induced EBV replication in P3HR1 cells; format: cell-based, Epstein-Barr virus (EBV); conditions: P3HR1 cells with TPA
HSV-1 [9] = assay: HSV-1 plaque formation and virus yield in NIH3T12 cells; format: cell-based
[10] = test system: Owl monkey kidney (OMK) cells; assay: Cytotoxicity in owl monkey kidney (OMK) cells; format: cell-based; conditions: analogous experiment
Excerpt: as §4

MHV 68 = assay: Cytopathic effect and virus yield reduction, MHV 68 in NIH3T12 cells; format: cell-based, murine gamma herpesvirus 68 (MHV-68)

For SR144528, the “Effect on spontaneous KSHV reactivation” value (KSHV [1]; BCBL-1, without THC) was “no effect”, the “Reversal of inhibition of linear DNA synthesis by THC” value (KSHV [1]; both antagonists, 1.25 μg/ml THC) was “reversed” and the “Reversal of THC inhibition of KSHV DNA synthesis” value (KSHV [1]; single receptor antagonist) was “not reversed”.
For Nc1ccn(C[C@@H](CO)OCP(=O)(O)O)c(=O)n1 [Cidofovir], the “Side effects in humans” value [2] is given as “toxic to the kidney” and the “Relative potency in in vitro antiviral experiments” value (KSHV, MHV 68) is given as “most potent”.
With CCCCCc1cc(O)c2c(c1)OC(C)(C)[C@@H]1CCC(C)=C[C@@H]21 [THC, Δ-9 Tetrahydrocannabinol] the “Reduction of control CMV promoter activity” value [3] was 35%, the “Cell growth and morphology” value (NIH3T12 cells [4]) was “no altered morphology” and the HSV-1 replication (HSV-1 [5]) was “unaffected”. The “Inhibition of KSHV ORF 50-driven luciferase activity” value (KSHV ORF 50 promoter) was about 4 fold, the IC50 (BCBL-1 cells) was about 33 µM and the “HVS virus yield reduction / replication” value (HVS) was “strongly inhibited”. The “Effect on co-transfected CMV promoter” value [6] was “slightly stimulated”, the IC50 (NIH3T12 cells [7]) was about 99 µM and the “Potency and selectivity against KSHV compared with known antiviral drugs” value (KSHV [8]; FIG. 4 comparison) was “potent and selective antiviral agent”. For the same molecule, the IC50 (KSHV [8]; Human gammaherpesvirus 8, BCBL1, 72 h, read-out: 50% inhibitory concentration (IC50), KSHV linear DNA) was 1 µg/mL and ~3.3 µM, the “Effect on EBV linear DNA synthesis” value (EBV; autoradiogram) was “inhibited EBV linear DNA synthesis” and the IC50 (EBV; human gammaherpesvirus 4, P3HR-1, read-out: 50% inhibitory concentration (IC50), EBV linear DNA synthesis) was ~0.9 µg/mL and ~3.1 µM. For the same molecule, the HSV-1 plaque development (HSV-1 [9]; 0.6-10 μg/ml, 3 days, NIH3T12) was “indistinguishable from those in control cultures”, the “Effect on HSV-1 virus yield” value (HSV-1 [9]; NIH3T12, multiplicity of 2, 24 hours) was “no significant inhibitory effect” and the Toxicity [10] was “no toxicity”. The “Cytopathic effect of MHV 68, appearance of infected cells” value (MHV 68; 0.6 μg/ml, 48 hours, NIH3T12) was “intermediate between uninfected cells and the full cytopathic effect”, the “Cytopathic effect of MHV 68, appearance of infected cells” value (MHV 68; 1.25 μg/ml or higher, 48 hours, NIH3T12) was “indistinguishable from uninfected control cells” and the “Inhibition of virus yield” value (MHV 68; 10 μg/ml, 48 hours, NIH3T12) was “over 300 fold”. For the same molecule, the “Potency and selectivity against MHV 68 compared with acyclovir, ganciclovir and foscarnet” value (MHV 68; FIG. 4 comparison) was “even more potent and selective”, the IC50 (MHV 68; Gammaherpesvirinae sp., in Mus musculus, 48 h, read-out: 50% inhibitory concentration (IC50), MHV 68 virus yield) was ~0.6 µg/mL and ~1.9 µM and the “Effect on MHV 68 virus yield / replication” value (MHV 68; NIH3T12 cells) was “inhibits MHV 68 virus yield; also recorded: highly significantly inhibited; also recorded: strongly inhibited”.
